Source: patent publication US9932637B2, “Genetic polymorphisms associated with cardiovascular disorders and drug response, methods of detection and uses thereof” (CELERA CORPORATION, priority 2003, dated 2018)
Values joined by “and” are separate entries in the source; they are usually repeats but may differ in a detail not shown here. Equal entries are not always repeated.

Tested on: patients with prior myocardial infarction (CARE study)
Assay: CARE aligned analysis (prospective and case/control design, white males): association of genotypes with pravastatin efficacy (Tables 13, 15)
Format: in vivo, human
Experimental: The data presented in Table 8 based on an association of genotypes with pravastatin efficacy of the CARE samples were further analyzed and presented in Table 13. The further analysis was performed to align the data obtained from the analysis of the CARE samples, which was a prospective study, to the analysis of the WOSCOP samples, which was a case/control study. Table 13 also presents an analysis of the association of genotypes with pravastatin efficacy in the WOSCOPs samples. Relative to the analysis performed on the data presented in Table 8, there are two significant differences to determine if the SNP influenced pravastatin efficacy. Data obtained from the CARE samples were separated by study design into two groups, those in the prospective study design group and those in the case/control study design group. The original care study contained 16 protocol defined cardiovascular disease defined endpoints and 150 other phenotypes. […] The control groups used to compare the data were also divided into two groups, the “all possible” control group and the “cleaner” control group. […] Because the participants in the WOSCOPs trial were all white males, only data obtained from white males in the CARE study were analysed. Data from the “all possible” and “cleaner” controls were compared to data obtained from the cases in the prospective study design while only data from “cleaner” controls were compared to cases in the case/control study design. The data from the case/control cohorts were analysed using conditional logistic regression (as opposed to logistic regression used for the original anaylsis).
The anaylsis was refined as described for both Tables 13 and 14.

[1] = CD6 hCV2553030, CARE, Case/Control, F MI/SD/NF MI
[2] = CD6 hCV2553030, CARE, Prospective, F MI/SD/NF MI
[3] = CD6 hCV25922320, CARE, Case/Control, F MI/SD/NF MI
[4] = CD6 hCV25922320, CARE, Case/Control, F MI/SD/NF MI, listed as Pravastatin
[5] = CD6 hCV25922320, CARE, Prospective, F MI/SD/NF MI
[6] = CD163 hCV25591528, CARE Case/Control, F&NF MI
[7] = CD163 hCV25591528, CARE Prospective, F&NF MI, listed as Pravastatin
[8] = CD163 hCV25591528, CARE, Case/Control, F MI/SD/NF MI, listed as Pravastatin
[9] = CD163 hCV25591528, CARE, Prospective, F MI/SD/NF MI
[10] = COL2A1 hCV3276198, CARE Case/Control, F&NF MI
[11] = COL11A1 hCV8400671, CARE Case/Control, F&NF MI
[12] = CR1 hCV25598594, CARE Case/Control, F&NF MI
[13] = CR1 hCV25598594, CARE Prospective, F&NF MI
[14] = CR1 hCV25598594, CARE, Case/Control, F MI/SD/NF MI
[15] = CR1 hCV25598594, CARE, Prospective, F MI/SD/NF MI
[16] = CXCL16 hCV8718197, CARE Prospective, F&NF MI
[17] = CXCL16 hCV8718197, CARE, Case/Control, F MI/SD/NF MI
[18] = CXCL16 hCV8718197, CARE, Prospective, F MI/SD/NF MI
[19] = CYBA hCV2038, CARE Case/Control, F&NF MI
[20] = ELN hCV1253630, CARE, Case/Control, F MI/SD/NF MI
[21] = ELN hCV1253630, CARE, Prospective, F MI/SD/NF MI
[22] = F7 hCV783138, CARE Case/Control, F&NF MI

CC[C@H](C)C(=O)O[C@H]1C[C@H](O)C=C2C=C[C@H](C)[C@H](CC[C@@H](O)C[C@@H](O)CC(=O)O)[C@H]21 [pravastatin]
Pravastatin vs placebo odds ratio, 2 rare alleles (CAPN10 hCV25614016, CARE, Prospective, F MI/SD/NF MI): 0.90 and 0.78 | OR of fatal MI/sudden death/non-fatal MI in the presence of statin treatment (CARE, hCV2442143, 0 rare alleles): 0.42 | OR of fatal MI/sudden death/non-fatal MI in the presence of statin treatment (CARE, hCV2442143, one rare allele, not statistically significant): 0.78 | OR of fatal MI/sudden death/non-fatal MI in the presence of statin treatment (CARE, hCV2442143, two rare alleles, not statistically significant): 1.16 | 2 Rare Alleles n/total, Pravastatin Patients (CD6 hCV2553030, CARE Case/Control, F&NF MI): 2/91 and 2/63 | 2 Rare Alleles n/total, Pravastatin Patients (CD6 hCV2553030, CARE Prospective, F&NF MI): 2/92 and 2/64 | Pravastatin vs placebo odds ratio, 0 rare alleles [1]: 0.97 and 0.92 | Pravastatin vs placebo odds ratio, 1 rare allele [1]: 0.80 and 0.68 | Pravastatin vs placebo odds ratio, 2 rare alleles [1]: 0.06 and 0.04 | Pravastatin vs placebo odds ratio, 0 rare alleles [2]: 0.97 and 0.88 | Pravastatin vs placebo odds ratio, 1 rare allele [2]: 0.81 and 0.72 | Pravastatin vs placebo odds ratio, 2 rare alleles [2]: 0.06 and 0.04 | 2 rare alleles n/total (%), pravastatin patients [3]: (17.9%) | Pravastatin vs placebo odds ratio, 2 rare alleles [3]: 1.44 | Pravastatin vs placebo odds ratio, 0 rare alleles [4]: 0.57 and 0.49 | Pravastatin vs placebo odds ratio, 1 rare allele [4]: 1.39 and 1.36 | Pravastatin vs placebo odds ratio, 2 rare alleles [4]: 1.09 | 2 rare alleles n/total (%), pravastatin patients [5]: (17.9%) | Pravastatin vs placebo odds ratio, 0 rare alleles [5]: 0.58 and 0.51 | Pravastatin vs placebo odds ratio, 1 rare allele [5]: 1.39 and 1.27 | Pravastatin vs placebo odds ratio, 2 rare alleles [5]: 1.09 and 1.17 | 2 Rare Alleles n/total, Pravastatin Patients [6]: 4/24 and 4/21 | Pravastatin vs placebo odds ratio, 2 rare alleles [6]: 1.23 and 0.64 | Pravastatin vs placebo odds ratio, 2 rare alleles (CD163 hCV25591528, CARE Prospective, F&NF MI): 0.59 | 2 Rare Alleles n/total, Pravastatin Patients [7]: 4/25 and 4/21 | Pravastatin vs placebo odds ratio, 2 rare alleles [7]: 1.14 | Pravastatin vs placebo odds ratio, 2 rare alleles (CD163 hCV25591528, CARE, Case/Control, F MI/SD/NF MI): 0.99 | Pravastatin vs placebo odds ratio, 0 rare alleles [8]: 0.96 and 0.88 | Pravastatin vs placebo odds ratio, 1 rare allele [8]: 0.29 and 0.27 | Pravastatin vs placebo odds ratio, 2 rare alleles [8]: 1.97 | Pravastatin vs placebo odds ratio, 0 rare alleles [9]: 0.97 and 0.86 | Pravastatin vs placebo odds ratio, 1 rare allele [9]: 0.30 and 0.28 | Pravastatin vs placebo odds ratio, 2 rare alleles [9]: 0.88 | 2 Rare Alleles (%), Pravastatin Patients [10]: (35.0%) | 2 Rare Alleles n/total, Pravastatin Patients [10]: 7/20 | 2 Rare Alleles (%), Pravastatin Patients [11]: (1.9%) | 2 Rare Alleles n/total, Pravastatin Patients [11]: 1/52 | 2 Rare Alleles (%), Pravastatin Patients [12]: (0.0%) | 2 Rare Alleles n/total, Pravastatin Patients [12]: 0/0 | 2 Rare Alleles (%), Pravastatin Patients [13]: (0.0%) | 2 Rare Alleles n/total, Pravastatin Patients [13]: 0/0 | Pravastatin vs placebo odds ratio, 0 rare alleles [14]: 0.86 and 0.78 | Pravastatin vs placebo odds ratio, 1 rare allele [14]: 0.09 and 0.07 | Pravastatin vs placebo odds ratio, 0 rare alleles [15]: 0.87 and 0.78 | Pravastatin vs placebo odds ratio, 1 rare allele [15]: 0.08 and 0.06 | 2 Rare Alleles n/total, Pravastatin Patients (CXCL16 hCV8718197, CARE Case/Control, F&NF MI): 32/233 and 32/160 | 2 Rare Alleles (%), Pravastatin Patients [16]: (19.8%) | 2 Rare Alleles n/total, Pravastatin Patients [16]: 32/237 and 32/162 | 2 rare alleles n/total (%), pravastatin patients [17]: (17.4%) | Pravastatin vs placebo odds ratio, 0 rare alleles [17]: 0.38 | Pravastatin vs placebo odds ratio, 1 rare allele [17]: 0.91 | Pravastatin vs placebo odds ratio, 2 rare alleles [17]: 1.12 | 2 rare alleles n/total (%), pravastatin patients [18]: (17.2%) | Pravastatin vs placebo odds ratio, 0 rare alleles [18]: 0.38 | Pravastatin vs placebo odds ratio, 1 rare allele [18]: 0.92 | Pravastatin vs placebo odds ratio, 2 rare alleles [18]: 1.06 | 2 Rare Alleles (%), Pravastatin Patients [19]: (16.9%) | 2 Rare Alleles n/total, Pravastatin Patients [19]: 23/136 | 2 rare alleles n/total (%), pravastatin patients [20]: (18.3%) | Pravastatin vs placebo odds ratio, 0 rare alleles [20]: 0.53 | Pravastatin vs placebo odds ratio, 1 rare allele [20]: 0.70 | Pravastatin vs placebo odds ratio, 2 rare alleles [20]: 1.64 | 2 rare alleles n/total (%), pravastatin patients [21]: (18.2%) | Pravastatin vs placebo odds ratio, 0 rare alleles [21]: 0.52 | Pravastatin vs placebo odds ratio, 1 rare allele [21]: 0.71 | Pravastatin vs placebo odds ratio, 2 rare alleles [21]: 1.60 | 2 Rare Alleles n/total, Pravastatin Patients (ELN hCV1253830, CARE Case/Control, F&NF MI): 28/204 and 28/133 | 2 Rare Alleles n/total, Pravastatin Patients (ELN hCV1253830, CARE Prospective, F&NF MI): 28/208 and 28/136 | 2 Rare Alleles (%), Pravastatin Patients [22]: (7.7%) | 2 Rare Alleles n/total, Pravastatin Patients [22]: 1/13 and 1/9 | 2 Rare Alleles (%), Pravastatin Patients (F7 hCV783138, CARE Prospective, F&NF MI): (7.7%)
